The test relates to TEAD-dependent transcription. The test can be described thus: TEAD-dependent transcription cell-based reporter assay (MSTO-211H+12XGTIIC luciferase). The conditions noted are these: Homo sapiens; MSTO-211H+12XGTIIC reporter cells, 24 hours compound incubation, luminescence normalized to viability; read-out: MSTO-211H GMean IC50 (uM) Cell Assay Reporter Cell Variant: TEAD. On the set-up: species or system human. From the text:
The human mesothelioma cell line MSTO-211H was stably transfected with a pGL4.21 plasmid containing a synthetic promoter with 12 copies of the GTIIC TEAD response element that drives the expression of a luciferase reporter gene^1 using Lipofectamine transfection reagent (Thermo Fisher). Transfected cells were selected using puromycin and single cell clones expressing this construct (referred to as MSTO-211H+12XGTIIC) were generated by limiting dilution. MSTO-211H cells was characterized by genetic alterations in key components of the Hippo pathway^2, resulting in up-regulation of YAP/TEAD-mediated transcription. […] To evaluate TEAD inhibitors, the MSTO-211H+12XGTIIC cell line was seeded in a 96-well plate in 50 μL of culture media at 1×10^4 cells per well and incubated at 37° C. overnight. Serial dilutions of compounds (in total volume of 50 μL of culture media) were added to the cells and incubated at 37° C. for 24 hours. Each plate included cells treated with DMSO as high controls and cells treated with 20 μM of the reference compound K-975 (a known TEAD inhibitor)^3 as low controls. Cell viability was assayed by the addition of 25 μL of CellTiter-Fluor reagent (Promega) followed by a 30-minute incubation at 37° C. and quantification of the fluorescence signal (Ex400/Em505). Subsequently, luciferase expression was assayed by the addition of 25 μL of ONE-Glo reagent (Promega) followed by a 10-minute incubation at room temperature and quantification of the luminescence signal. The luminescence signal was normalized to the fluorescence signal to correct for any loss in cell viability over the 24-hour compound incubation period. The percentage of inhibition of normalized luminescence signal, indicative of compound-mediated inhibition of TEAD-dependent transcription, at individual compound concentrations relative to high and low controls was calculated. The data were analyzed by using nonlinear regression to generate IC50 values for individual compounds.

This passage reports IC50 results from US20250376445A1, “COMPOUNDS AND METHODS FOR YAP/TEAD MODULATION AND INDICATIONS THEREFOR” (OPNA BIO SA, priority 2023, published 2025).

On to `Nc1nc2ccc(C(=O)N3CCc4c(cccc4C(=O)c4ccc(C(F)(F)F)cc4)C3)cc2[nH]1` [O-0069, (2-amino-1H-benzo[d]imidazol-6-yl)(5-(4-(trifluoromethyl)benzoyl)-3,4-dihydroisoquinolin-2(1H)-yl)methanone], for which the half-inhibitory concentration (IC50) fell in the range of 0.001 to 10 µM.

For the molecule `O=C(c1cccc2sc(C(F)(F)F)nc12)N1CCc2c(cccc2C(F)c2ccc(C(F)(F)F)cc2)C1` (stereo not shown) [O-0070, (5-(fluoro(4-(trifluoromethyl)phenyl)methyl)-3,4-dihydroisoquinolin-2(1H)-yl)(2-(trifluoromethyl)benzo[d]thiazol-4-yl)methanone], the concentration for half-maximal inhibition (IC50) was in the range of 0.001 to 10 µM.

Take `O=C(c1ccc(C(F)(F)F)cc1)c1cccc2c1CCN(C(=O)Cc1ncc[nH]1)C2` [O-0071, 2-(1H-imidazol-2-yl)-1-(5-(4-(trifluoromethyl)benzoyl)-3,4-dihydroisoquinolin-2(1H)-yl)ethan-1-one]: the IC50 fell in the range of 0.001 to 10 µM.

Take `O=C(c1ccc(C(F)(F)F)cc1)c1cccc2c1CCN(C(=O)c1ncc(C(F)(F)F)[nH]1)C2` [O-0072, (5-(trifluoromethyl)-1H-imidazol-2-yl)(5-(4-(trifluoromethyl)benzoyl)-3,4-dihydroisoquinolin-2(1H)-yl)methanone]: the IC50 lay within 0.001 to 10 µM.

For the molecule `O=C(c1ccc(C(F)(F)F)cc1)c1cccc2c1CCN(C(=O)c1ccc3nc(C(F)(F)F)[nH]c3c1)C2` [O-0073, (2-(trifluoromethyl)-1H-benzo[d]imidazol-6-yl)(5-(4-(trifluoromethyl)benzoyl)-3,4-dihydroisoquinolin-2(1H)-yl)methanone], the IC50 lay within 0.001 to 10 µM.

With `O=C(c1ccc(C(F)(F)F)cc1)c1cccc2c1CCN(C(=O)c1ccc3nc[nH]c3c1)C2` [O-0074, (2-(1H-benzo[d]imidazole-6-carbonyl)-1,2,3,4-tetrahydroisoquinolin-5-yl)(4-(trifluoromethyl)phenyl)methanone], the IC50 is 0.001 to 10 µM.

Regarding `O=C(c1ccc(C(F)(F)F)cc1)c1cccc2c1CCN(C(=O)c1ccc3[nH]ccc3c1)C2` [O-0075, (2-(1H-indole-5-carbonyl)-1,2,3,4-tetrahydroisoquinolin-5-yl)(4-(trifluoromethyl)phenyl)methanone], the half-inhibitory concentration (IC50) lay in the range of 0.001 to 10 µM.

On to `O=C(c1ccc(C(F)(F)F)cc1)c1cccc2c1CCN(C(=O)Cc1cscn1)C2` [O-0076, 2-(thiazol-4-yl)-1-(5-(4-(trifluoromethyl)benzoyl)-3,4-dihydroisoquinolin-2(1H)-yl)ethan-1-one], for which the half-inhibitory concentration (IC50) was 0.001 to 10 µM.

As for `CS(=O)(=O)CCC(=O)N1CCc2c(cccc2C(F)c2ccc(C(F)(F)F)cc2)C1` (stereo not shown) [O-0077, 1-(5-(fluoro(4-(trifluoromethyl)phenyl)methyl)-3,4-dihydroisoquinolin-2(1H)-yl)-3-(methylsulfonyl)propan-1-one], the half-maximal inhibitory concentration (IC50) fell in the range of 0.001 to 10 µM.

For `COC(c1ccc(C(F)(F)F)cc1)c1cccc2c1CCN(C(=O)CCS(C)(=O)=O)C2` (stereo not shown) [O-0078, 1-(5-(methoxy(4-(trifluoromethyl)phenyl)methyl)-3,4-dihydroisoquinolin-2(1H)-yl)-3-(methylsulfonyl)propan-1-one], the IC50 is 0.001 to 10 µM.

Take `O=C(Cc1cscn1)N1CCc2c(Cc3ccc(C(F)(F)F)cc3)cccc2C1` [O-0079, 2-(thiazol-4-yl)-1-(5-(4-(trifluoromethyl)benzyl)-3,4-dihydroisoquinolin-2(1H)-yl)ethan-1-one]: the half-maximal inhibitory concentration (IC50) is 0.001 to 10 µM.

On to `O=C(Cc1c[nH]cn1)N1CCc2c(Cc3ccc(C(F)(F)F)cc3)cccc2C1` [O-0080, 2-(1H-imidazol-4-yl)-1-(5-(4-(trifluoromethyl)benzyl)-3,4-dihydroisoquinolin-2(1H)-yl)ethan-1-one], for which the IC50 was 0.001 to 10 µM.

On to `CS(=O)(=O)CCC(=O)N1CCc2c(cccc2C(=O)c2ccc(C(F)(F)F)cc2)C1` [O-0081, 3-(methylsulfonyl)-1-(5-(4-(trifluoromethyl)benzoyl)-3,4-dihydroisoquinolin-2(1H)-yl)propan-1-one], for which the IC50 is 0.001 to 10 µM.

Turning to `CS(=O)(=O)CCC(=O)N1CCc2c(cccc2C(O)c2ccc(C(F)(F)F)cc2)C1` (stereo not shown) [O-0082, 1-(5-(hydroxy(4-(trifluoromethyl)phenyl)methyl)-3,4-dihydroisoquinolin-2(1H)-yl)-3-(methylsulfonyl)propan-1-one], the IC50 was in the range of 0.001 to 10 µM.

`C=CC(=O)N1CCc2cc(-c3ccc(C(F)(F)F)cc3)ccc2C1` [O-0110, 1-(6-(4-(trifluoromethyl)phenyl)-3,4-dihydroisoquinolin-2(1H)-yl)prop-2-en-1-one]: the IC50 fell in the range of 0.001 to 10 µM.

`C=CS(=O)(=O)N1CCc2cc(-c3ccc(C(F)(F)F)cc3)ccc2C1` [O-0111, 6-(4-(trifluoromethyl)phenyl)-2-(vinylsulfonyl)-1,2,3,4-tetrahydroisoquinoline]: the 50% inhibitory concentration (IC50) was in the range of 0.001 to 10 µM.

As to `C=CC(=O)N1CCc2ccc(-c3ccc(C(F)(F)F)cc3)cc2C1` [O-0113, 1-(7-(4-(trifluoromethyl)phenyl)-3,4-dihydroisoquinolin-2(1H)-yl)prop-2-en-1-one], the 50% inhibitory concentration (IC50) is 0.001 to 10 µM.

As for `C=CS(=O)(=O)N1CCc2ccc(-c3ccc(C(F)(F)F)cc3)cc2C1` [O-0114, 7-(4-(trifluoromethyl)phenyl)-2-(vinylsulfonyl)-1,2,3,4-tetrahydroisoquinoline], the IC50 was in the range of 0.001 to 10 µM.

In the case of `C=CC(=O)N1CCc2c(cccc2-c2ccc(C(F)(F)F)cc2)C1` [O-0116, 1-(5-(4-(trifluoromethyl)phenyl)-3,4-dihydroisoquinolin-2(1H)-yl)prop-2-en-1-one], the half-inhibitory concentration (IC50) is 0.001 to 10 µM.

Turning to `C=CS(=O)(=O)N1CCc2c(cccc2-c2ccc(C(F)(F)F)cc2)C1` [O-0117, 5-(4-(trifluoromethyl)phenyl)-2-(vinylsulfonyl)-1,2,3,4-tetrahydroisoquinoline], the IC50 is 0.001 to 10 µM.

As to `O=C(CCS(=O)(=O)C(F)(F)F)N1CCc2cc(-c3ccc(C(F)(F)F)cc3)ccc2C1` [O-0128, 1-(6-(4-(trifluoromethyl)phenyl)-3,4-dihydroisoquinolin-2(1H)-yl)-3-((trifluoromethyl)sulfonyl)propan-1-one], the half-inhibitory concentration (IC50) fell in the range of 0.001 to 10 µM.

Regarding `O=C(CCS(=O)(=O)C(F)(F)F)N1CCc2cc(-c3ccc(C(F)(F)F)c(F)c3)ccc2C1` [O-0130, 1-(6-(3-fluoro-4-(trifluoromethyl)phenyl)-3,4-dihydroisoquinolin-2(1H)-yl)-3-((trifluoromethyl)sulfonyl)propan-1-one], the concentration for half-maximal inhibition (IC50) lay in the range of 0.001 to 10 µM.

In the case of `C[C@@H](Nc1ccccn1)C(=O)N1CCc2c(cccc2-c2ccc(C(F)(F)F)cc2)C1` [O-0131, (R)-2-(pyridin-2-ylamino)-1-(5-(4-(trifluoromethyl)phenyl)-3,4-dihydroisoquinolin-2(1H)-yl)propan-1-one], the half-inhibitory concentration (IC50) lay in the range of 0.001 to 10 µM.

As for `C[C@@H](NC(=O)c1cccc(N)n1)C(=O)N1CCc2c(cccc2-c2ccc(C(F)(F)F)cc2)C1` [O-0132, (R)-6-amino-N-(1-oxo-1-(5-(4-(trifluoromethyl)phenyl)-3,4-dihydroisoquinolin-2(1H)-yl)propan-2-yl)picolinamide], the 50% inhibitory concentration (IC50) was in the range of 0.001 to 10 µM.

As for `C[C@@H](NC(=O)c1cccc(N)n1)C(=O)N1CCc2ccc(-c3ccc(C(F)(F)F)cc3)cc2C1` [O-0133, (R)-6-amino-N-(1-oxo-(7-(4-(trifluoromethyl)phenyl)-3,4-dihydroisoquinolin-2(1H)-yl)propan-2-yl)picolinamide], the IC50 lay within 0.001 to 10 µM.
